Laboratory results published in patent US20200253929A1, “TREATMENT OF EPILEPSY” (priority 2017, published 2020).
Entries after “also recorded” stand apart in the source; their conditions may differ.

Key:
zebrafish larvae = assay: Zebrafish toxicity evaluation (maximum tolerated concentration); type: in vivo, Danio rerio; settings: up to 18 hours exposure, 100 μg/mL used where no MTC was reached
Description: (§1) In case no MTC was reached, 100 μg/mL was used as the test concentration. In line with studies previously reported [Baraban et al. (2005) Neurosci 131, 759-768; Afrikanova et al. (2013) PLoS One 8, e54166], addition of the GABAA-receptor antagonist PTZ to the swimming water of 7 days post-fertilization (dpf) zebrafish larvae strongly elevated larval locomotion (p≤0.001) (FIGS. 2 and 3) as a result of induced seizures (or seizure-like behavior) that were recognized as typical high-speed swimming, whirlpool-like circling, clonus-like seizures, and loss of posture, as previously described in Baraban et al cited above.
Maximum tolerated concentration (MTC) was determined prior to further experiments and used as the highest test concentration. MTC was investigated by exposing 12 larvae of 6 days post-fertilization (dpf) to a range of concentrations in a 100 μL volume during 18 hours. The following parameters were investigated after 2 and 18 hours of exposure: touch response, morphology, posture, edema, signs of necrosis, swim bladder, and heartbeat. […] In case MTC was not reached, 100 μg/mL was used as the highest test concentration.

[1] = test system: PTZ-induced seizures in zebrafish larvae; assay: Zebrafish PTZ seizure model, behavioral analysis; type: in vivo, Danio rerio; settings: at MTC, 2 or 18 hours incubation (not specified per compound)
Description: To investigate whether the isolated compounds display antiseizure activity, they were tested in the zebrafish PTZ seizure model after both an acute (2 hours) and chronic (18 hours) incubation time at their maximum tolerated concentration (MTC) (Table 1, FIG. 1).
as §1
Experimental procedure was described in Afrikanova et al.(2013) PLoS One 8, e54166 and Orellana-Paucar et al. (2012) Epilepsy Behav 24, 14-22. In brief, a single 7 dpf larva (in case of 2 hours incubation) or 6 dpf larva (in case of 18 hours incubation) was placed in each well of a 96-well plate and treated with either VHC (1% DMSO) or compound (1% DMSO) in a 100 μL volume. Larvae were incubated in dark for 2 or 18 hours at 28° C., whereafter 100 μL of either VHC (embryo medium) or 40 mM PTZ (dissolved in embryo medium, 20 mM working concentration) was added to each well. Next, within 5 min the 96-well plate was placed in an automated tracking device (ZebraBox Viewpoint, France) and larval behavior was video recorded for 30 min. The complete procedure was performed in dark conditions using infrared light. Total locomotor activity was recorded by ZebraLab software (Viewpoint, France) and expressed in actinteg units, which is the sum of pixel changes detected during the defined time interval (5 min). Larval behavior was depicted as mean actinteg units/5 min during the 30 min recording period and over 5 min time intervals. Data are expressed as mean±SD or as mean ±SEM when the means of independent experiments were pooled.

NMRI mice = assay: Mouse 6-Hz (44 mA) psychomotor seizure model; type: in vivo
Text: Although the zebrafish model has a high degree of genetic, physiological and pharmacological conservation^13, it is more distinct from humans than mammals. Therefore, we were interested to see if the observed antiseizure properties of azaspirofuran A and pseurotin A2 would translate to a rodent model. The mouse 6-Hz (44 mA) psychomotor seizure model was chosen, because it can detect compounds with novel antiseizure mechanisms and with potential against drug-resistant seizures [Barton et al. (2001) Epilepsy Res 47, 217-227; Wilcox et al. (2013) Epilepsia 54 S4, 24-34]. In this model drug-resistant focal impaired awareness seizures [Fisher et al. (2017) Epilepsia 58, 531-542], previously referred to as complex partial or psychomotor seizures [Holcomb and Dean (2011) Psychomotor Seizures, In Encyclopedia of Child Behavior and Development (Goldstein, S., and Naglieri, J. A., Eds.), pp 1191-1192, Springer US, Boston, Mass.], are induced by low frequency, long duration corneal electrical stimulation (6 Hz, 0.2 ms rectangular pulse width, 3 s duration, 44 mA) and are characterized by stun, twitching of the vibrissae, forelimb clonus, and Straub tail. […] Stimulated mice with a seizure duration shorter than 27 seconds were thus considered to be protected. […] Besides, this study provides another example of the translation of results from zebrafish to rodent seizure models.
Experimental procedure was described in Copmans et al. (2018) Neurochem. Int. 112, 124-133. before Buenafe et al. cited above; Orellana-Paucar cited above. In brief, NMRI mice (average weight 28 g, range 23-32 g) were randomly divided into control and treatment groups (n=5-10). 50 μL (injection volume was adjusted to the individual weight) of VHC (PEG200:DMSO:water; 0.25:0.25:0.5) or treatment (an ASD or test compound dissolved in VHC) was i.p. injected in mice and after 30 or 120 (in case of phenytoin, as reported by Barton et al. cited above) min psychomotor seizures were induced by low frequency, long duration corneal electrical stimulation (6 Hz, 0.2 ms rectangular pulse width, 3 s duration, 44 mA) using an ECT Unit 5780 (Ugo Basile, Comerio, Italy). Mice were manually restrained and a drop of ocular anesthetic (0.5% lidocaine) was applied to the corneas before stimulation. Following electrical current stimulation, the mouse was released in a transparent cage for behavioral observation, which was video-recorded. […] In addition, facial and mouth jerking as well as head nodding were observed occasionally. Mice displaying normal exploratory and locomotion behavior within a time period of 26 seconds were considered to be protected against the induced psychomotor seizures. Seizure durations were measured during the experiment by experienced researchers, familiar with the different seizure behaviors. In addition, seizure durations were determined by blinded video analysis to confirm or correct the initial observations. Data are expressed as mean±SD.

[2] = test system: PTZ-induced epileptiform brain activity in zebrafish larvae; assay: Zebrafish PTZ seizure model, local field potential recordings (electrophysiology); type: in vivo, Danio rerio; settings: vs VHC+PTZ
Text: To determine whether azaspirofuran A and pseurotin A2 can ameliorate the PTZ-induced hyperexcitable state of the brain that is characterized by epileptiform discharges, local field potential (LFP) recordings were non-invasively measured from the midbrain (optic tectum) of zebrafish larvae [Zdebik et al. (2013) PLoS One 8, e79765; Britton et al. (2016) In Electroencephalography (EEG): An Introductory Text and Atlas of Normal and Abnormal Findings in Adults, Children, and Infants (St. Louis and Frey, Eds.), Chicago]. To that end larvae were treated with either VHC or test compound (MTC and optimal incubation time were used) followed by a 15 min during exposure to PTZ or VHC prior to the electrophysiology measurements (FIG. 4). […] Thus, both compounds not only ameliorate PTZ-induced seizures but are likely to do so by lowering the PTZ-induced hyperexcitable state of the brain.
Experimental procedure was described before [Zdebik et al. (2013) PLoS One 8, e79765; Sourbron et al. (2017) Front. Pharmac. 8, 191; Copmans et al. (2018) Neurochem. Int. 112, 124-133.]. Non-invasive LFP recordings were measured from the midbrain (optic tectum) of 7 dpf zebrafish larvae pre-incubated with VHC only, PTZ only, compound and VHC, or compound and PTZ. Larvae were incubated for approximately 2 or 18 hours with VHC (1% DMSO) or compound (1% DMSO) in a 100 μL volume. After incubation, 100 μL of VHC (embryo medium) or 40 mM PTZ (dissolved in embryo medium, 20 mM working concentration) was added to the well for 15 min prior to recording. These steps occurred at 28° C., while further manipulation and electrophysiological recordings occurred at room temperature (21° C.). The larva was embedded in 2% low melting point agarose (Invitrogen) and the signal electrode (an electrode inside a soda-glass pipet (1412227, Hilgenberg) pulled with a DMZ Universal Puller (Zeitz, Germany), diameter±20 microns, containing artificial cerebrospinal fluid (ACSF: 124 mM NaCl, 10 mM glucose, 2 mM KCl, 2 mM MgSO4, 2 mM CaCl2, 1.25 mM KH2PO4, and 26 mM NaHCO3, 300-310 mOsmols)) was positioned on the skin covering the optic tectum. A differential extracellular amplifier (DAGAN, USA) amplified the voltage difference between the signal (measured by the signal electrode) and the reference electrode. The differential signal was band pass filtered at 0.3-300 Hz and digitized at 2 kHz via a PCI-6251 interface (National instruments, UK) using WinEDR (John Dempster, University of Strathclyde, UK). A grounding electrode grounded the electrical system. All electrodes were connected with ACSF. Each recording lasted 600 seconds. Manual analysis was completed by quantification of the number, cumulative duration, and mean duration of epileptiform-like events with Clampfit 10.2 software (Molecular Devices Corporation, USA). An electrical discharge was considered epileptiform if it was a poly-spiking event comprising at least 3 spikes with a minimum amplitude of three times the baseline amplitude and a duration of at least 100 milliseconds. Data are expressed as mean±SD for the number and cumulative duration of epileptiform events and as mean±SEM for the mean duration of events.

[3] = MTC and optimal incubation time, 10 min recording

| Compound | MTC (maximum tolerated concentration) (zebrafish larvae) | PTZ-induced seizures (seizure-like behavior) [1] | also measured |
| --- | --- | --- | --- |
| 11-O-methylpseurotin A | 100 µg/mL | less pronounce reduction in PTZ-induced seizures | PTZ-induced seizures (seizure-like behavior) ([1]; listed as 11-Omethylpseurotin A): not active |
| CC/C=C\C(OC(=O)c1ccccc1N)C(O)C1=C(C)C(=O)C2(O1)C(=O)NC(OC)(C(=O)c1ccccc1)C2O (centres unmarked) [11-anthranilyl-Pseurotin A] | 100 µg/mL | less pronounce reduction in PTZ-induced seizures | – |
| CCc1ccc(C2=C(C)C(=O)[C@]3(O2)C(=O)N[C@@](O)(C(=O)c2ccccc2)[C@@H]3O)o1 [azaspirofuran B] | 12.5 µg/mL | – | – |
| O=C1NC(=O)C(c2ccccc2)(c2ccccc2)N1 [phenytoin, reference compound] | – | – | response of seizures (NMRI mice; 10 mg/kg i.p., 120 min before electrical stimulation): limited non-significant response |
| CC/C=C\[C@H](O)[C@H](O)C1=C(C)C(=O)[C@]2(O1)C(=O)N[C@@](OC)(C(=O)c1ccccc1)[C@@H]2O [pseurotin A] | 100 µg/mL | not active | mean duration of epileptiform events ([2]; 100 μg/mL, 18 hours): significantly lower the mean duration; cumulative duration of epileptiform events [2, 3]: non-significantly lower; number of epileptiform events [2, 3]: non-significantly lower |
| CCC(O)C=C[C@H](O)C1=C(C)C(=O)[C@]2(O1)C(=O)N[C@@](OC)(C(=O)c1ccccc1)[C@@H]2O (some centres unmarked) [pseurotin D] | 100 µg/mL | less pronounce reduction in PTZ-induced seizures; also recorded: not active | – |
| CC/C=C\[C@H](O)[C@H](O)C1=C(C)C(=O)[C@]2(O1)C(=O)N[C@](O)(C(=O)c1ccccc1)[C@@H]2O [pseurotin F1] | 50 µg/mL | less pronounce reduction in PTZ-induced seizures | – |
| CCCC(CCC)C(=O)O [valproate, reference compound] | – | – | mean seizure duration (NMRI mice; 300 mg/kg i.p., 30 min before electrical stimulation): 4 s |
